In ChEMBL document CHEMBL1201862, “PubChem BioAssay data set” (2004):
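Compound exposure: 48 hours, 5 concentrations, 96-well plates. GI50 is the concentration that inhibits growth by half.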 Active and inactive are the calls of the source. No stated cut-off is given here; in the data, active = GI50 up to about 1.1 µM and inactive = higher.

How the values were obtained:
Experiment in all cases: NCI tumour cell line growth inhibition, 48 h
[1] = tested on: 786-0
[2] = tested on: A498
[3] = tested on: A549
[4] = tested on: ACHN
[5] = tested on: BT-549
[6] = tested on: CAKI-1
[7] = tested on: CCRF-CEM
[8] = tested on: COLO 205
[9] = tested on: DLD-1
[10] = tested on: DMS-114
[11] = tested on: DMS-273
[12] = tested on: DU-145
[13] = tested on: EKVX
[14] = tested on: HCC 2998
[15] = tested on: HCT-116
[16] = tested on: HCT-15
[17] = tested on: HL-60
[18] = tested on: HOP-18
[19] = tested on: HOP-62
[20] = tested on: HOP-92
[21] = tested on: HT-29
[22] = tested on: Hs-578T
[23] = tested on: IGROV-1
[24] = tested on: K562
[25] = tested on: KM-20L2
[26] = tested on: KM12
[27] = tested on: LOX IMVI
[28] = tested on: LXFL 529
[29] = tested on: M14
[30] = tested on: M19-MEL
[31] = tested on: MCF7
[32] = tested on: MDA-MB-231
[33] = tested on: MDA-MB-435
[34] = tested on: MDA-N
[35] = tested on: MOLT-4
[36] = tested on: Malme-3M
[37] = tested on: NCI-H226
[38] = tested on: NCI-H23
[39] = tested on: NCI-H460
[40] = tested on: NCI-H522
[41] = tested on: NCI/ADR-RES
[42] = tested on: OVCAR-3
[43] = tested on: OVCAR-4
[44] = tested on: OVCAR-5
[45] = tested on: OVCAR-8
[46] = tested on: PC-3
[47] = tested on: RPMI-8226
[48] = tested on: RXF 393
[49] = tested on: RXF 631
[50] = tested on: SF-268
[51] = tested on: SF-295
[52] = tested on: SF-539
[53] = tested on: SK-MEL-28
[54] = tested on: SK-MEL-2
[55] = tested on: SK-MEL-5
[56] = tested on: SK-OV-3
[57] = tested on: SN12C
[58] = tested on: SNB-19
[59] = tested on: SNB-75
[60] = tested on: SNB-78
[61] = tested on: SR
[62] = tested on: SW-620
[63] = tested on: T47D
[64] = tested on: TK-10
[65] = tested on: U-251
[66] = tested on: UACC-257
[67] = tested on: UACC-62
[68] = tested on: UO-31
[69] = tested on: XF498

In the case of CN(C)CCCNc1ccc2ncn3c4ccc(O)cc4c(=O)c1c23, the GI50 [1] is reported as 692 nM (active), the GI50 [2] is reported as 697 nM (active) and the GI50 [3] is reported as 72.1 nM (active). The GI50 [4] was 158 nM (active), the GI50 [5] was 17300 nM (inactive) and the GI50 [6] was 195 nM (active). For the same molecule, the GI50 [7] was 218 nM (active), the GI50 [8] was 1110 nM (active) and the GI50 [9] was 1400 nM (inactive). For the same molecule, the GI50 [10] was 334 nM (active), the GI50 [11] was 246 nM (active) and the GI50 [12] was 638 nM (active). For the same molecule, the GI50 [13] was 4710 nM (inactive), the GI50 [14] was 4430 nM (inactive) and the GI50 [15] was 458 nM (active). For the same molecule, the GI50 [16] was 1910 nM, the GI50 [17] was 277 nM (active) and the GI50 [18] was 3860 nM (inactive). The GI50 [19] was 538 nM (active), the GI50 [20] was 705 nM (active) and the GI50 [21] was 1300 nM (inactive). The GI50 [22] was 541 nM (active), the GI50 [23] was 577 nM (active) and the GI50 [24] was 1350 nM (inactive). For the same molecule, the GI50 [25] was 1590 nM (inactive), the GI50 [26] was 3140 nM (inactive) and the GI50 [27] was 607 nM (active). For the same molecule, the GI50 [28] was 1870 nM (inactive), the GI50 [29] was 1650 nM (inactive) and the GI50 [30] was 1530 nM (inactive). For the same molecule, the GI50 [31] was 96.4 nM (active), the GI50 [32] was 7460 nM (inactive) and the GI50 [33] was 4880 nM (inactive). For the same molecule, the GI50 [34] was 4480 nM (inactive), the GI50 [35] was 40.6 nM (active) and the GI50 [36] was 2830 nM (inactive). For the same molecule, the GI50 [37] was 483 nM (active), the GI50 [38] was 716 nM (active) and the GI50 [39] was 105 nM (active). The GI50 [40] was 252 nM (active), the GI50 [41] was 12400 nM (inactive) and the GI50 [42] was 3580 nM (inactive). The GI50 [43] was 1550 nM (inactive), the GI50 [44] was 3030 nM (inactive) and the GI50 [45] was 1070 nM (active). For the same molecule, the GI50 [46] was 1830 nM (inactive), the GI50 [47] was 1580 nM (inactive) and the GI50 [48] was 439 nM (active). The GI50 [49] was 318 nM (active), the GI50 [50] was 957 nM (active) and the GI50 [51] was 708 nM (active). The GI50 [52] was 506 nM (active), the GI50 [53] was 4710 nM (inactive) and the GI50 [54] was 6210 nM (inactive). The GI50 [55] was 640 nM (active), the GI50 [56] was 321 nM (active) and the GI50 [57] was 500 nM (active). The GI50 [58] was 1240 nM (inactive), the GI50 [59] was 601 nM (active) and the GI50 [60] was 9730 nM (inactive). For the same molecule, the GI50 [61] was < 18.9 nM (active), the GI50 [62] was 647 nM (active) and the GI50 [63] was 12000 nM (inactive). The GI50 [64] was 1760 nM (inactive), the GI50 [65] was 203 nM (active) and the GI50 [66] was 8090 nM (inactive). The GI50 [67] was 1200 nM (inactive), the GI50 [68] was 1350 nM (inactive) and the GI50 [69] was 3830 nM (inactive).
